Here are results for 13 compounds from Sander's compilation of Henry's law constants (doi:10.1080/00039896.1979.10667371).

The nature of the data set: Henry solubility constant Hcp at 310 K (mol/(m3 Pa)). To be noted: reference: Sato and Nakajima (1979b).
For `ClCC(Cl)(Cl)Cl` [1,1,1,2-tetrachloroethane], the “Henry solubility constant Hcp at 310 K” value was determined as 0.0021.
Take `CC(Cl)(Cl)Cl` [1,1,1-trichloroethane]: the “Henry solubility constant Hcp at 310 K” value came out at 0.00036.
Regarding `ClC(Cl)C(Cl)Cl` [1,1,2,2-tetrachloroethane], the “Henry solubility constant Hcp at 310 K” value was 0.014.
As to `ClCC(Cl)Cl` [1,1,2-trichloroethane], the “Henry solubility constant Hcp at 310 K” value stood at 0.0066.
For the compound `CC(Cl)CCl` (stereo not drawn) [1,2-dichloropropane], the “Henry solubility constant Hcp at 310 K” value was found to be 0.0021.
For `Clc1cccc(Cl)c1` [1,3-dichlorobenzene] the value was 0.0021.
On to `CCCCCl` [1-chlorobutane], for which the “Henry solubility constant Hcp at 310 K” value is 0.00033.
With `CCCCCCl` [1-chloropentane], the “Henry solubility constant Hcp at 310 K” value came to 0.00027.
On to `Clc1ccccc1` [chlorobenzene], for which the “Henry solubility constant Hcp at 310 K” value stood at 0.0016.
Regarding `ClCCl` [dichloromethane], the “Henry solubility constant Hcp at 310 K” value worked out at 0.0028.
The value for `ClC(Cl)=C(Cl)Cl` [tetrachloroethene] was 0.00017.
For `ClC(Cl)(Cl)Cl` [tetrachloromethane], the “Henry solubility constant Hcp at 310 K” value was determined as 9.7e-05.
The value for `ClC=C(Cl)Cl` [trichloroethene] was 0.0005.
